Columns and labels:
Settings in all cases: incubation time: 72 h
[1] = test system: HCC1143; experiment: normalised response (% of control), CellTox Green; higher = less cell death (100 = DMSO, 0 = benzethonium chloride kill control)
In short: (§1)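 In 384-well plates holding compound at 5 concentrations in 10-fold steps over a 10,000-fold range specific to each compound, breast cancer cell lines were seeded as 20 µl suspension and incubated 72 h. CellTox Green fluorescence was measured at 485/520 nm, after which CellTiter-Glo luminescence was measured following 10 min at room temperature. Plate signals were normalised to 0.1 % DMSO (100) and a positive kill control (0), and each value is the normalised signal at a single concentration.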

[2] = test system: HCC1937; experiment: as above
In short: as §1

[3] = test system: MDA-MB-468; experiment: as above
In short: as §1

[4] = test system: MCF-10A; experiment: as above
In short: as §1

[5] = test system: MDA-MB-231; experiment: as above
In short: as §1

[6] = test system: CAL-85-1; experiment: as above
In short: as §1

[7] = test system: DU-4475; experiment: as above
In short: as §1

[8] = test system: CAL-120; experiment: as above
In short: as §1

[9] = test system: BT-474; experiment: as above
In short: as §1

[10] = test system: HDQ-P1; experiment: as above
In short: as §1

[11] = test system: MDA-MB-453; experiment: as above
In short: as §1

[12] = test system: BT-549; experiment: as above
In short: as §1

[13] = test system: MFM-223; experiment: as above
In short: as §1

[14] = test system: CAL-51; experiment: as above
In short: as §1

[15] = test system: MDA-MB-436; experiment: as above
In short: as §1

[16] = test system: CAL-148; experiment: as above
In short: as §1

[17] = test system: HCC1599; experiment: as above
In short: as §1

[18] = test system: Hs578T; experiment: as above
In short: as §1

[19] = test system: HCC1143; experiment: normalised response (% of control), CellTiter-Glo; higher = more viable cells (100 = DMSO, 0 = benzethonium chloride kill control)
In short: as §1

[20] = test system: HCC1937; experiment: as above
In short: as §1

[21] = test system: MDA-MB-468; experiment: as above
In short: as §1

[22] = test system: MCF-10A; experiment: as above
In short: as §1

[23] = test system: MDA-MB-231; experiment: as above
In short: as §1

[24] = test system: CAL-85-1; experiment: as above
In short: as §1

[25] = test system: DU-4475; experiment: as above
In short: as §1

[26] = test system: CAL-120; experiment: as above
In short: as §1

[27] = test system: SK-BR-3; experiment: as above
In short: as §1

[28] = test system: BT-474; experiment: as above
In short: as §1

[29] = test system: HDQ-P1; experiment: as above
In short: as §1

[30] = test system: MDA-MB-453; experiment: as above
In short: as §1

[31] = test system: BT-549; experiment: as above
In short: as §1

[32] = test system: MFM-223; experiment: as above
In short: as §1

[33] = test system: CAL-51; experiment: as above
In short: as §1

[34] = test system: MDA-MB-436; experiment: as above
In short: as §1

[35] = test system: CAL-148; experiment: as above
In short: as §1

[36] = test system: HCC1599; experiment: as above
In short: as §1

[37] = test system: Hs578T; experiment: as above
In short: as §1

[38] = test system: HCC1143; experiment: normalised response (% of control), CellTiter-Glo; higher = more viable cells (100 = DMSO, 0 = benzethonium chloride kill control); remark: listed apart in the source
Experimental: (§2)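 DSRT, 72 h incubation, CellTox Green / CellTiter-Glo readout. Signal is normalised to DMSO and benzethonium chloride controls. Value is the normalised response at dose 3.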

[39] = test system: HCC1937; experiment: as above; remark: listed apart in the source
Experimental: as §2

[40] = test system: MCF-10A; experiment: as above; remark: listed apart in the source
Experimental: as §2

[41] = test system: MDA-MB-231; experiment: as above; remark: listed apart in the source
Experimental: as §2

[42] = test system: CAL-85-1; experiment: as above; remark: listed apart in the source
Experimental: as §2

[43] = test system: DU-4475; experiment: as above; remark: listed apart in the source
Experimental: as §2

[44] = test system: CAL-120; experiment: as above; remark: listed apart in the source
Experimental: as §2

[45] = test system: SK-BR-3; experiment: as above; remark: listed apart in the source
Experimental: as §2

[46] = test system: BT-474; experiment: as above; remark: listed apart in the source
Experimental: as §2

[47] = test system: HDQ-P1; experiment: as above; remark: listed apart in the source
Experimental: as §2

[48] = test system: MDA-MB-453; experiment: as above; remark: listed apart in the source
Experimental: as §2

[49] = test system: BT-549; experiment: as above; remark: listed apart in the source
Experimental: as §2

[50] = test system: MDA-MB-436; experiment: as above; remark: listed apart in the source
Experimental: as §2

[51] = test system: CAL-148; experiment: as above; remark: listed apart in the source
Experimental: as §2

[52] = test system: HCC1599; experiment: as above; remark: listed apart in the source
Experimental: as §2

| SMILES | normalised response [1] | normalised response [2] | normalised response [3] | normalised response [4] | normalised response [5] | normalised response [6] | normalised response [7] | normalised response [8] | normalised response [9] | normalised response [10] | normalised response [11] | normalised response [12] | normalised response [13] | normalised response [14] | normalised response [15] | normalised response [16] | normalised response [17] | normalised response [18] | normalised response [19] | normalised response [20] | further results |
| --- | --- | --- | --- | --- | --- | --- | --- | --- | --- | --- | --- | --- | --- | --- | --- | --- | --- | --- | --- | --- | --- |
| Cc1cccc(-c2nn3c(c2-c2ccnc4ccc(C(N)=O)cc24)CCC3)n1 [Galunisertib] (100 nM) | 112% | 93.8% | 170% | 59.8% | 120% | 102% | 107% | 101% | 102% | 70.6% | 114% | 121% | 98.5% | 112% | 105% | 108% | 109% | 87.6% | 109% | 104% | normalised response [21]: 107%; normalised response [22]: 109%; normalised response [23]: 108%; normalised response [24]: 104%; normalised response [25]: 104%; normalised response [26]: 104%; normalised response [27]: 105%; normalised response [28]: 104%; normalised response [29]: 101%; normalised response [30]: 105%; normalised response [31]: 94.3%; normalised response [32]: 107%; normalised response [33]: 88.5%; normalised response [34]: 110%; normalised response [35]: 101%; normalised response [36]: 109%; normalised response [37]: 91.6% |
| CS(=O)(=O)N1CCN(Cc2cc3nc(-c4cccc5[nH]ncc45)nc(N4CCOCC4)c3s2)CC1 [Pictilisib] (100 nM) | 110% | – | 143% | 106% | 92.3% | 107% | 101% | 102% | 98.8% | 107% | 104% | 101% | 105% | 103% | 107% | 92.1% | 108% | 109% | – | – | normalised response [38]: 91.7%; normalised response [39]: 94.7%; normalised response [40]: 84.8%; normalised response [41]: 86.2%; normalised response [42]: 106%; normalised response [43]: 92%; normalised response [44]: 89.6%; normalised response [45]: 74.1%; normalised response [46]: 86.9%; normalised response [47]: 82.4%; normalised response [48]: 88.5%; normalised response [49]: 86.7%; normalised response [50]: 92%; normalised response [51]: 98.4%; normalised response [52]: 93.6% |
| O=C(NC[C@H](O)CO)c1ccncc1Nc1ccc(I)cc1F [Pimasertib] (1000 nM) | 89.5% | 109% | 150% | 106% | 63.2% | 67.4% | 62.6% | 83.4% | 78.8% | 77.2% | 107% | 142% | 100% | 93.7% | 56.7% | 105% | 111% | 103% | 84.2% | 84.3% | normalised response [21]: 87.4%; normalised response [22]: 31.2%; normalised response [23]: 72.1%; normalised response [24]: 61.9%; normalised response [25]: 0.43%; normalised response [26]: 73.6%; normalised response [27]: 86.1%; normalised response [28]: 69.8%; normalised response [29]: 62.1%; normalised response [30]: 105%; normalised response [31]: 96.1%; normalised response [32]: 94%; normalised response [33]: 73%; normalised response [34]: 95.5%; normalised response [35]: 83.5%; normalised response [36]: 91.6%; normalised response [37]: 86.2% |
| Cn1cc(CNCC2CCN(c3ncc(C(=O)NO)cn3)CC2)c2ccccc21 [Quisinostat] (100 nM) | 86.2% | 80% | 43.3% | 97.8% | 29.6% | -5.42% | 82.1% | 34.5% | 45.6% | -19.4% | 89% | 92.3% | 72.8% | 58.5% | 87.5% | 23.7% | 86.8% | 38.8% | 25.4% | 64.7% | normalised response [21]: 34.5%; normalised response [22]: 51.6%; normalised response [23]: 30%; normalised response [24]: 29.5%; normalised response [25]: 23.2%; normalised response [26]: 44.5%; normalised response [27]: 14.9%; normalised response [28]: 25.3%; normalised response [29]: 58.4%; normalised response [30]: 2.02%; normalised response [31]: 46.1%; normalised response [32]: 52.5%; normalised response [33]: 40.5%; normalised response [34]: 55.3%; normalised response [35]: 8.89%; normalised response [36]: 42.1%; normalised response [37]: 37.2% |
